pIC50: −log10 of the molar value.
System: DU-145
Assay: Growth inhibition of human DU145 cells assessed as cell growth at 10 uM incubated for 48 hrs by sulforhodamine B assay relative to control
Assay type: functional
Conditions: DU-145, 48 h, read-out: Activity

Row | Compound | growth at 10 µM
1 | COc1cc(Cl)cc(-c2nn(-c3cccc(NC(=O)Nc4cc(C(F)(F)F)cc(C(F)(F)F)c4)c3)cc2-c2ccncc2)c1 | 13.1%

System: MDA-MB-468
Assay: Growth inhibition of human MDA-MB-468 cells assessed as cell growth at 10 uM incubated for 48 hrs by sulforhodamine B assay relative to control
Assay type: functional
Conditions: MDA-MB-468, 48 h, read-out: Activity

Row | Compound | growth at 10 µM
2 | COc1cc(Cl)cc(-c2nn(-c3cccc(NC(=O)Nc4cc(C(F)(F)F)cc(C(F)(F)F)c4)c3)cc2-c2ccncc2)c1 | -2.95%

System: NCI/ADR-RES
Assay: Growth inhibition of human NCI/ADR-RES cells incubated for 48 hrs by sulforhodamine B assay
Assay type: functional, cell-based
Conditions: not given

Row | Compound | pIC50
3 | COc1cc(Cl)cc(-c2nn(-c3cccc(NC(=O)Nc4cc(C(F)(F)F)cc(C(F)(F)F)c4)c3)cc2-c2ccncc2)c1 | 6.09

Same assay, conditions: read-out: GI50

Row | Compound | GI50
4 | COc1cc(Cl)cc(-c2nn(-c3cccc(NC(=O)Nc4cc(C(F)(F)F)cc(C(F)(F)F)c4)c3)cc2-c2ccncc2)c1 | 0.815 µM

Same assay, conditions: read-out: LC50 (the source's name)

Row | Compound | CC50
5 | COc1cc(Cl)cc(-c2nn(-c3cccc(NC(=O)Nc4cc(C(F)(F)F)cc(C(F)(F)F)c4)c3)cc2-c2ccncc2)c1 | > 100 µM

Same assay, conditions: read-out: TGI

Row | Compound | TGI
6 | COc1cc(Cl)cc(-c2nn(-c3cccc(NC(=O)Nc4cc(C(F)(F)F)cc(C(F)(F)F)c4)c3)cc2-c2ccncc2)c1 | 9.98 µM

Same assay, conditions: read-out: pGI50 (converted)

Row | Compound | GI50
7 | COc1cc(Cl)cc(-c2nn(-c3cccc(NC(=O)Nc4cc(C(F)(F)F)cc(C(F)(F)F)c4)c3)cc2-c2ccncc2)c1 | 0.813 µM

Same assay, conditions: read-out: pLC50 (the source's name) (converted)

Row | Compound | CC50
8 | COc1cc(Cl)cc(-c2nn(-c3cccc(NC(=O)Nc4cc(C(F)(F)F)cc(C(F)(F)F)c4)c3)cc2-c2ccncc2)c1 | > 100 µM

Same assay, conditions: read-out: pTGI (converted)

Row | Compound | TGI
9 | COc1cc(Cl)cc(-c2nn(-c3cccc(NC(=O)Nc4cc(C(F)(F)F)cc(C(F)(F)F)c4)c3)cc2-c2ccncc2)c1 | 10 µM

System: MOLT-4
Assay: Growth inhibition of human MOLT4 cells assessed as cell growth at 0.1 uM incubated for 48 hrs by sulforhodamine B assay relative to control
Assay type: functional
Conditions: MOLT-4, 48 h, read-out: Activity

Row | Compound | growth at 0.1 µM
10 | COc1cc(Cl)cc(-c2nn(-c3cccc(NC(=O)Nc4cc(C(F)(F)F)cc(C(F)(F)F)c4)c3)cc2-c2ccncc2)c1 | 87%

System: SF-295
Assay: Growth inhibition of human SF295 cells assessed as cell growth at 0.1 uM incubated for 48 hrs by sulforhodamine B assay relative to control
Assay type: functional
Conditions: SF-295, 48 h, read-out: Activity

Row | Compound | growth at 0.1 µM
11 | COc1cc(Cl)cc(-c2nn(-c3cccc(NC(=O)Nc4cc(C(F)(F)F)cc(C(F)(F)F)c4)c3)cc2-c2ccncc2)c1 | 91%

System: SK-MEL-5
Assay: Growth inhibition of human SK-MEL-5 cells assessed as cell growth at 0.1 uM incubated for 48 hrs by sulforhodamine B assay relative to control
Assay type: functional
Conditions: SK-MEL-5, 48 h, read-out: Activity

Row | Compound | growth at 0.1 µM
12 | COc1cc(Cl)cc(-c2nn(-c3cccc(NC(=O)Nc4cc(C(F)(F)F)cc(C(F)(F)F)c4)c3)cc2-c2ccncc2)c1 | 97%

System: PC-3
Assay: Growth inhibition of human PC3 cells assessed as cell growth at 0.1 uM incubated for 48 hrs by sulforhodamine B assay relative to control
Assay type: functional
Conditions: PC-3, 48 h, read-out: Activity

Row | Compound | growth at 0.1 µM
13 | COc1cc(Cl)cc(-c2nn(-c3cccc(NC(=O)Nc4cc(C(F)(F)F)cc(C(F)(F)F)c4)c3)cc2-c2ccncc2)c1 | 91%

System: SK-MEL-5
Assay: Growth inhibition of human SK-MEL-5 cells assessed as cell growth at 1 uM incubated for 48 hrs by sulforhodamine B assay relative to control
Assay type: functional
Conditions: SK-MEL-5, 48 h, read-out: Activity

Row | Compound | growth at 1 µM
14 | COc1cc(Cl)cc(-c2nn(-c3cccc(NC(=O)Nc4cc(C(F)(F)F)cc(C(F)(F)F)c4)c3)cc2-c2ccncc2)c1 | 50%

System: OVCAR-3
Assay: Growth inhibition of human OVCAR3 cells assessed as cell growth at 1 uM incubated for 48 hrs by sulforhodamine B assay relative to control
Assay type: functional
Conditions: OVCAR-3, 48 h, read-out: Activity

Row | Compound | growth at 1 µM
15 | COc1cc(Cl)cc(-c2nn(-c3cccc(NC(=O)Nc4cc(C(F)(F)F)cc(C(F)(F)F)c4)c3)cc2-c2ccncc2)c1 | 5%

System: OVCAR-5
Assay: Growth inhibition of human OVCAR5 cells assessed as cell growth at 1 uM incubated for 48 hrs by sulforhodamine B assay relative to control
Assay type: functional
Conditions: OVCAR-5, 48 h, read-out: Activity

Row | Compound | growth at 1 µM
16 | COc1cc(Cl)cc(-c2nn(-c3cccc(NC(=O)Nc4cc(C(F)(F)F)cc(C(F)(F)F)c4)c3)cc2-c2ccncc2)c1 | 59%

System: A549
Assay: Growth inhibition of human A549/ATCC cells assessed as cell growth at 100 uM incubated for 48 hrs by sulforhodamine B assay relative to control
Assay type: functional
Conditions: A549, 48 h, read-out: Activity

Row | Compound | growth at 100 µM
17 | COc1cc(Cl)cc(-c2nn(-c3cccc(NC(=O)Nc4cc(C(F)(F)F)cc(C(F)(F)F)c4)c3)cc2-c2ccncc2)c1 | -68%

System: HT-29
Assay: Growth inhibition of human HT-29 cells assessed as cell growth at 100 uM incubated for 48 hrs by sulforhodamine B assay relative to control
Assay type: functional
Conditions: HT-29, 48 h, read-out: Activity

Row | Compound | growth at 100 µM
18 | COc1cc(Cl)cc(-c2nn(-c3cccc(NC(=O)Nc4cc(C(F)(F)F)cc(C(F)(F)F)c4)c3)cc2-c2ccncc2)c1 | -96%

System: DU-145
Assay: Growth inhibition of human DU145 cells assessed as cell growth at 100 uM incubated for 48 hrs by sulforhodamine B assay relative to control
Assay type: functional
Conditions: DU-145, 48 h, read-out: Activity

Row | Compound | growth at 100 µM
19 | COc1cc(Cl)cc(-c2nn(-c3cccc(NC(=O)Nc4cc(C(F)(F)F)cc(C(F)(F)F)c4)c3)cc2-c2ccncc2)c1 | -58%
